Test [1] addresses T1, IDO1 (A172+IFNg cells, high IDO expressing cells) (Homo sapiens, UniProt P14902).
T1 construct: A172+IFNg cells (high IDO expressing cells); endogenous in cells; host or cells: A172 cells induced with 100 ng/ml IFNγ
In words: NFK GreenScreen cell assay, inhibition of IDO in A172+IFNg cells. Format: cell-based. To be noted: read-out: IDO cell Fluor EC50. From the text:
(§1) Cells are counted on a Vi-Cell (Beckman Coulter). […] The final DMSO concentration is 0.5%.

Test [2] addresses T2, TDO2 (SW48 cells, high TDO expressing cells) (Homo sapiens, UniProt P48775).
T2 construct: SW48 cells (high TDO expressing cells); endogenous in cells; host or cells: SW48 cells
Kind of test: NFK GreenScreen cell assay, inhibition of TDO in SW48 cells. Conditions: read-out: TDO2 Cell Fluor EC50. In kind it is cell-based.
Excerpt: as §1

These results are taken from patent US11603373B2, “TDO2 and IDO1 inhibitors” (Genentech, Inc., priority 2017, dated 2023).

T2 sequence (P48775 whole entry): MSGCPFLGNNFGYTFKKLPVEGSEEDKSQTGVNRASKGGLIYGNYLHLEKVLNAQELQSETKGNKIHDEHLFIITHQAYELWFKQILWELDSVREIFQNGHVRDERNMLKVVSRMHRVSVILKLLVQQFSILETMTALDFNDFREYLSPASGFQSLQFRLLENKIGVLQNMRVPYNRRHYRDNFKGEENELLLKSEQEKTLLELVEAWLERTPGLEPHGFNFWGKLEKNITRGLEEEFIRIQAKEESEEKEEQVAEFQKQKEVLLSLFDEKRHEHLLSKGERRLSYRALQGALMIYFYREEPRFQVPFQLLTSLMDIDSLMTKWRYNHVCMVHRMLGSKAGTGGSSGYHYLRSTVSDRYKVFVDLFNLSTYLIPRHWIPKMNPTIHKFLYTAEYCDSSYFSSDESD
T1 sequence (P14902 whole entry): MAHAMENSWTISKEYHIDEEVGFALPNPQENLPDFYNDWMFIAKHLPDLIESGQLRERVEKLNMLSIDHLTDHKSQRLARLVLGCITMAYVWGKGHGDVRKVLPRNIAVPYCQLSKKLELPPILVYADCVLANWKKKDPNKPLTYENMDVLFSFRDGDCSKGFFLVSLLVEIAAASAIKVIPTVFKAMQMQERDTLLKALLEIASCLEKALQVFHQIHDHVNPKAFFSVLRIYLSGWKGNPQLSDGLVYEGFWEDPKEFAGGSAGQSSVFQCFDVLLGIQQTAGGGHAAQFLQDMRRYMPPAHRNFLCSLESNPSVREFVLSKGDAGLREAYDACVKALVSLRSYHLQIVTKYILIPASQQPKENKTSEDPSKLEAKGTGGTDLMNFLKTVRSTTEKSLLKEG

As for `O=S1(=O)CCC2(CC[C@@H]([C@H]3c4ccccc4-c4cncn43)[C@H]2O)CC1` (relative stereo) [Example 13a, (1R,2S)-1-hydroxy-2-((S)-5H-imidazo[5,1-a]isoindol-5-yl)-8-thiaspiro[4.5]decane 8,8-dioxide], the results for the EC50 in test [1] and in test [2] were 290 nM and 160 nM, respectively. The matching figures for `CC(C)(C)OC(=O)N1CC2CCC(C1)C21C[C@H]([C@@H]2c3ccccc3-c3cncn32)[C@@H]1O` (relative stereo) [Example 22a, tert-butyl (2′S,3′R)-2′-hydroxy-3′-((R)-5H-imidazo[5,1-a]isoindol-5-yl)-3-azaspiro[bicyclo[3.2.1]octane-8,1′-cyclobutane]-3-carboxylate]: 2100 nM and 410 nM.

For `CC(C)(C)OC(=O)N1CCC2(CC1)C[C@H](C1c3ccccc3-c3cncn31)[C@@H]2O` (single isomer, unassigned) [Example 1a], the concentration for a half-maximal effect (EC50) (as a rule, the concentration needed to bring the measured effect to its halfway point) in test [1] amounted to 4300 nM; in test [2], 6300 nM.

As for `CC(C)(C)OC(=O)N1CCC2(CC1)C[C@@H]([C@H]1c3ccccc3-c3cncn31)[C@H]2O` (single isomer, unassigned) [Example 1b], the figures for the EC50 in test [1] and in test [2] were 27.9 nM and 300 nM, respectively.

For the compound `CC(C)(C)OC(=O)N1CCC2(CC[C@@H]([C@@H]3c4ccccc4-c4cncn43)[C@@H]2O)CC1` (single isomer, unassigned) [Example 2a], the values for the 50% effective concentration (EC50) in test [1] and in test [2] were 6600 nM and 15000 nM, respectively. On the same counts, the results for `CC(C)(C)OC(=O)N1CCC2(CC[C@H]([C@H]3c4ccccc4-c4cncn43)[C@H]2O)CC1` (single isomer, unassigned) [Example 2b] are 410 nM and 240 nM. On the same counts, the results for `CC(C)(C)OC(=O)N1CCC2(CC[C@@H]([C@H]3c4ccccc4-c4cncn43)[C@H]2O)CC1` (single isomer, unassigned) [Example 2c] are 51.5 nM and 107 nM.

For the compound `CC(C)(C)OC(=O)N1CCC2(CC[C@H]([C@@H]3c4ccccc4-c4cncn43)[C@@H]2O)CC1` (single isomer, unassigned) [Example 2d], the EC50 in test [1] turned out to be 1600 nM; in test [2], 3700 nM. On the same counts, the results for `CC(C)(C)OC(=O)N1CC2(CC[C@H]([C@@H]3c4ccccc4-c4cncn43)[C@@H]2O)C1` (single isomer, unassigned) [Example 3b] are 1100 nM and 72 nM.

Turning to `CC(C)(C)OC(=O)N1CC2(CC[C@@H]([C@@H]3c4ccccc4-c4cncn43)[C@@H]2O)C1` (single isomer, unassigned) [Example 3c], the EC50 in test [1] was 13000 nM; in test [2], 14000 nM. The matching figures for `CC(C)(C)OC(=O)N1CC2(CC[C@H]([C@H]3c4ccccc4-c4cncn43)[C@H]2O)C1` (single isomer, unassigned) [Example 3d]: 4000 nM and 130 nM.

On to `CC(C)(C)OC(=O)N1CC2(CC[C@@H]([C@H]3c4ccccc4-c4cncn43)[C@@H]2O)C1` (single isomer, unassigned) [Example 3e], for which the EC50 in test [1] was found to be 7100 nM; in test [2] it was 14000 nM. As to `CC(C)(C)OC(=O)N1CC2(CC[C@H]([C@@H]3c4ccccc4-c4cncn43)[C@H]2O)C1` (single isomer, unassigned) [Example 3f], the EC50 in test [1] amounted to 170 nM; in test [2], 130 nM.

As for `CC(C)(C)OC(=O)N1CC2(CC[C@@H]([C@@H]3c4ccccc4-c4cncn43)[C@H]2O)C1` (single isomer, unassigned) [Example 3g], the results for the EC50 in test [1] and in test [2] were 8200 nM and 14000 nM, respectively. On the same counts, the results for `CC(C)(C)OC(=O)N1CC2(CC[C@H]([C@H]3c4ccccc4-c4cncn43)[C@@H]2O)C1` (single isomer, unassigned) [Example 3h] are 200 nM and 1200 nM.

As to `NS(=O)(=O)N1CCC2(CC[C@H]([C@H]3c4ccccc4-c4cncn43)[C@H]2O)CC1` (single isomer, unassigned) [Example 4b], the EC50 amounted to 16000 nM in test [1] and 510 nM in test [2]. On to `NS(=O)(=O)N1CCC2(CC[C@@H]([C@H]3c4ccccc4-c4cncn43)[C@H]2O)CC1` (single isomer, unassigned) [Example 4c], for which the results for the EC50 in test [1] and in test [2] were 6200 nM and 4600 nM, respectively. The matching figures for `NS(=O)(=O)N1CCC2(CC[C@H]([C@@H]3c4ccccc4-c4cncn43)[C@@H]2O)CC1` (single isomer, unassigned) [Example 4d]: 110 nM and 73 nM. As to `CS(=O)(=O)N1CCC2(CC1)C[C@H]([C@@H]1c3ccccc3-c3cncn31)[C@@H]2O` (single isomer, unassigned) [Example 6a], the EC50 in test [1] came out at 5900 nM; in test [2] it was 400 nM. On the same counts, the results for `CS(=O)(=O)N1CCC2(CC1)C[C@@H]([C@H]1c3ccccc3-c3cncn31)[C@@H]2O` (single isomer, unassigned) [Example 6d] are 9300 nM and 540 nM.

Regarding `CS(=O)(=O)N1CCC2(CC1)C[C@@H]([C@@H]1c3ccccc3-c3cncn31)[C@H]2O` (single isomer, unassigned) [Example 6e], the EC50 in test [1] was 3200 nM; in test [2], 6800 nM.

`CS(=O)(=O)N1CCC2(CC1)C[C@H]([C@H]1c3ccccc3-c3cncn31)[C@@H]2O` (single isomer, unassigned) [Example 6f]: the EC50 came out at 24 nM in test [1] and 120 nM in test [2]. Take `CS(=O)(=O)N1CCC2(CC1)C[C@H]([C@H]1c3ccccc3-c3cncn31)[C@H]2O` (single isomer, unassigned) [Example 6g]: the EC50 in test [1] was 4680 nM; in test [2], 1230 nM. As to `CS(=O)(=O)N1CCC2(CC1)C[C@@H]([C@@H]1c3ccccc3-c3cncn31)[C@@H]2O` (single isomer, unassigned) [Example 6h], the EC50 turned out to be 6500 nM in test [1] and 8600 nM in test [2].

Take `CS(=O)(=O)N1CCC2(CC[C@@H]([C@@H]3c4ccccc4-c4cncn43)[C@@H]2O)CC1` (single isomer, unassigned) [Example 7a]: the EC50 in test [1] worked out at 3900 nM; in test [2], 370 nM.

Regarding `CS(=O)(=O)N1CCC2(CC[C@@H]([C@H]3c4ccccc4-c4cncn43)[C@H]2O)CC1` (single isomer, unassigned) [Example 7c], the results for the EC50 in test [1] and in test [2] were 115 nM and 133 nM, respectively. Take `O=S(=O)(CF)N1CCC2(CC1)C[C@H]([C@@H]1c3ccccc3-c3cncn31)[C@@H]2O` (single isomer, unassigned) [Example 8a]: the EC50 amounted to 17000 nM in test [1] and 15000 nM in test [2]. As for `O=S(=O)(CF)N1CCC2(CC1)C[C@@H]([C@H]1c3ccccc3-c3cncn31)[C@H]2O` (single isomer, unassigned) [Example 8b], the EC50 in test [1] was found to be 48 nM; in test [2], 120 nM. On the same counts, the results for `COC(=O)N1CCC2(CC[C@@H]([C@H]3c4ccccc4-c4cncn43)[C@H]2O)CC1` (single isomer, unassigned) [Example 9a] are 18000 nM and 21000 nM. Regarding `COC(=O)N1CCC2(CC[C@H]([C@@H]3c4ccccc4-c4cncn43)[C@@H]2O)CC1` (single isomer, unassigned) [Example 9b], the EC50 in test [1] came to 130 nM; in test [2], 100 nM.

Take `CC(=O)N1CCC2(CC[C@@H]([C@H]3c4ccccc4-c4cncn43)[C@H]2O)CC1` (single isomer, unassigned) [Example 10a]: the EC50 in test [2] was 24000 nM. With `CC(=O)N1CCC2(CC[C@H]([C@@H]3c4ccccc4-c4cncn43)[C@@H]2O)CC1` (single isomer, unassigned) [Example 10b], the EC50 in test [1] was 240 nM; in test [2], 170 nM. On the same counts, the results for `NS(=O)(=O)N1CCC2(CC1)C[C@H]([C@@H]1c3ccccc3-c3cncn31)[C@@H]2O` (single isomer, unassigned) [Example 11a] are 20000 nM and 660 nM.

For `NS(=O)(=O)N1CCC2(CC1)C[C@@H]([C@H]1c3ccccc3-c3cncn31)[C@@H]2O` (single isomer, unassigned) [Example 11d], in test [2], the EC50 was determined as 3000 nM. Consider `NS(=O)(=O)N1CCC2(CC1)C[C@@H]([C@@H]1c3ccccc3-c3cncn31)[C@H]2O` (single isomer, unassigned) [Example 11e], for which the EC50 in test [1] is 6800 nM; in test [2], 12000 nM. The matching figures for `NS(=O)(=O)N1CCC2(CC1)C[C@H]([C@H]1c3ccccc3-c3cncn31)[C@@H]2O` (single isomer, unassigned) [Example 11f]: 58.5 nM and 182 nM. Take `NS(=O)(=O)N1CCC2(CC1)C[C@@H]([C@@H]1c3ccccc3-c3cncn31)[C@@H]2O` (single isomer, unassigned) [Example 11h]: in test [2], the EC50 worked out at 11000 nM.

Consider `CC(C)(C)OC(=O)N[C@H]1CC[C@]2(CC1)C[C@@H]([C@H]1c3ccccc3-c3cncn31)[C@@H]2O` (single isomer, unassigned) [Example 24o], for which the EC50 in test [2] was found to be 20000 nM. For the compound `CC(C)(C)OC(=O)N1CC2CCC(C1)C21C[C@H]([C@H]2c3ccccc3-c3cncn32)[C@@H]1O` (stereo partly drawn) [Example 22c, tert-butyl (2′S,3′R)-2′-hydroxy-3′-((S)-5H-imidazo[5,1-a]isoindol-5-yl)-3-azaspiro[bicyclo[3.2.1]octane-8,1′-cyclobutane]-3-carboxylate], the EC50 in test [1] amounted to 8800 nM. As to `O=C(C1CCc2nncn2C1)N1CCC2(CC1)CC(C1c3ccccc3-c3cncn31)C2O` (centres unmarked) [compound 67, [3-hydroxy-2-(5H-imidazo[1,5-b]isoindol-5-yl)-7-azaspiro[3.5]nonan-7-yl]-(5,6,7,8-tetrahydro-[1,2,4]triazolo[4,3-a]pyridin-6-yl)methanone], the EC50 in test [2] was 23000 nM.
